Experimental findings from patent publication US20040266880A1, “Antipruritics” (priority 2002, published 2004) are described below.

Each structure is given as a SMILES string. Structures can show the parent of a compound that is named as a salt.

Holding throughout (type): in vivo
In experiment [1] the test system is NC/Nga mice manifesting atopic dermatitis. The experiment in a line: Test Example 1: effect on the spontaneous, itch-evoked scratching behavior of NC mice. The note with it: for % Occurrence of scratching behavior: 0.1% in 100% ethanol, 0.2 ml/mouse on dorsal skin, count before drug application set to 100%, scratchings 1.5 seconds or longer, N = 6. As to the method: Twenty-week-old NC/Nga mice each weighing about 30 g and manifesting atopic dermatitis were purchased from SLC and subjected to the following experiment. A magnet was buried in both hind paws of each mouse and by detecting its magnetism, the movement of the paws was measured with an itch measuring system (product of Neuroscience). Among the scratching actions, those lasting 1.5 seconds or longer were considered itch-evoked and their number was counted continuously. […] Since there was a wide range of variation among individual animals, the experimental data was scored assuming that the initial count before drug application was set to 100%. The same test was repeated using 100% ethanol as a control and dexamethasone (a steroid; Wako Pure Chemical Industries, Ltd.) and tacrolimus (an immunosuppressive; Fujisawa Pharmaceutical Co., Ltd.) as comparative drugs.

The test system is the same in experiment [2]. The experiment in a line: Case 2: effects of external use of tacrolimus and dexamethasone on spontaneous itch-evoked scratching behavior in NC/Nga mice. The settings on record: 0.1% in 100% ethanol, 200 μl applied onto head and dorsal skin; paw movements lasting 1.5 seconds or longer; before application: tacrolimus group 600 ± 64, dexamethasone group 567 ± 77. The method, then:
Experimental animals used were 14-week-old NC/Nga male mice, each weighing about 30 g and manifesting atopic dermatitis, and were divided into groups of 6 mice each.
To perform this test, a commercially available itch measuring system (product of Neuroscience) was used. After magnets for scratch measurement were inserted into both hind paws of each of the above animals, the animals were individually placed in a measurement cage and measured for the number of scratchings over 24 hours (the value before drug application). Then, 200 μl each of 0.1% tacrolimus (Fujisawa Pharmaceutical Co., Ltd.) and dexamethasone (Wako Pure Chemical Industries, Ltd.) dissolved in 100% ethanol were applied onto the head and dorsal skin, followed by recording again the number of scratchings over 24 hours (the value after drug application). The control group received 100% ethanol alone. The results obtained were processed to score itch-evoked scratching behavior, assuming that each paw movement lasting 1.5 seconds or longer was counted as one scratch reflex, followed by statistical analysis to determine statistical significance between the values before and after drug application.

Experiment [3] has the same test system. The experiment in a line: Test Example 2: effect on the spontaneous, itch-evoked scratching behavior of NC mice (percent itch suppression). The note with it: for % Inhibition (percent itch suppression): total 24-hr scratching counts before vs after, N = 8. As to the method: Twenty-week-old NC/Nga mice each weighing about 30 g and manifesting atopic dermatitis were purchased from SLC and subjected to the following experiment. A magnet was buried in both hind paws of each mouse and by detecting its magnetism, the movement of the paws was measured with an itch measuring system (product of Neuroscience). Among the scratching actions, those lasting 1.5 seconds or longer were considered itch-evoked and their number was counted continuously. […] Prostaglandin E2 (PGE2; Cayman Chemical), prostaglandin D2 (PGD2; Cayman Chemical), limaprost (synthetic), sulprostone (synthetic) and beraprost (synthetic) were used as drugs according to the present invention. The subsequent 24-hr itch-evoked scratching behavior was measured and the number of itch-evoked scratchings after drug application was compared with the initial count. The experimental data was processed to calculate the percent itch suppression on the basis of the total 24-hr itch-evoked scratching counts before and after drug application (Table 2). [formula]
For significance testing, the itch-evoked scratching counts that were obtained before and after drug application from individual animals in each group treated with a specific concentration of drug were processed by a paired t-test. Differences with a significance level of 0.5% or less were determined as “significant.”
The same test was repeated using 100% ethanol as a control and, as comparative drugs, dexamethasone (a steroid; Wako Pure Chemical Industries, Ltd.), tacrolimus (FK-506, an immunosuppressive; Fujisawa Pharmaceutical Co., Ltd.) and chlorpheniramine maleate (an antihistamine; Kongo Chemical Co., Ltd.) at the concentrations shown in Table 2 below, provided that chlorpheniramine maleate was administered orally.

Experiment [4] relates to dermatitis manifesting NC mice. The experiment in a line: Test Example 3: effect on dermatitis manifesting NC mouse models (dermatitis score). The settings on record: 0.01% in 100% ethanol, 200 μl on dorsal back seven times a week for 4 weeks; FIGS. 1 and 2; P<0.05. As to the method:
By suitably modifying a method known to the skilled artisan (Jpn. J. Pharmacol. 76, 175-183 (1998) Jun Hiroi, et al. Effects of Tacrolimus Hydrate (FK-506) Ointment on Spontaneous Dermatitis in NC/Nga Mice), the following test was conducted in order to confirm the antipruritic effect of prostaglandins. (Method) Animals: Four-week old SPF NC mice (male) were purchased from Japan SLC; right after their arrival, the SPF NC mice were kept together with dermatitis manifesting male NC mice (older than 20 weeks) for 2 weeks under the following conditions so as to induce itch-evoked scratching behavior. A group of mice manifesting dermatitis and another group of mice not manifesting dermatitis, each consisting of four animals, were allowed to cohabit in a sawdust cage (34×17×39 cm) and kept in an animal house set at room temperature (23±3° C.) and at a humidity of 55±15% under illumination for 12 hours (from 7:00 am to […]). After 2-wk cohabitation, the purchased mice were taken out of the cage and transferred into another cage, where a group of 8 animals were further kept for 14 weeks until the test. […] The mean value ± standard deviation was calculated from the dermatitis scores for each group, and then statistically processed by t-test to determine statistical significance between each drug administration group and ethanol-treated group.

[5] abbreviates: concentration 0.1% in 100% ethanol, 0.2 ml/mouse on dorsal skin.
[6] abbreviates: external application of 0.1%, same extent as dexamethasone and tacrolimus.
The mark [7] stands for this setting: concentration 0.01% in 100% ethanol, 0.2 ml/mouse on dorsal skin.

For the molecule `C=CC[C@@H]1/C=C(\C)C[C@H](C)C[C@H](OC)[C@H]2O[C@@](O)(C(=O)C(=O)N3CCCC[C@H]3C(=O)O[C@H](/C(C)=C/[C@@H]3CC[C@@H](O)[C@H](OC)C3)[C@H](C)[C@@H](O)CC1=O)[C@H](C)C[C@@H]2OC` [Tacrolimus, tacrolimus], the “% Occurrence of scratching behavior” value in experiment [1] was determined as 45 ± 8 %. In addition, the “number of scratchings over 24 hours, after drug application” value in experiment [2] came to 267 ± 45. In addition, in experiment [3] (setting [5]), the “% Inhibition (percent itch suppression)” value is 55.5%.
For the molecule `CCCCC[C@H](O)/C=C/[C@H]1[C@H](O)CC(=O)[C@@H]1C/C=C\CCCC(=O)O` [PGE2, prostaglandin E2], the “% Occurrence of scratching behavior” value in experiment [1] amounted to 46 ± 10 %. In addition, the “effect on spontaneous itch-evoked scratching behavior (in words)” value in experiment [1] (setting [6]) is reported as “strongly reduced”. Moreover, the “% Inhibition (percent itch suppression)” value in experiment [3] (setting [5]) was 54.3%. Moreover, the “effect on spontaneous itch-evoked scratching behavior in NC mice (in words)” value in experiment [3] (setting [6]) was “strongly reduced”.
Regarding `CC#CCC(C)[C@H](O)/C=C/[C@@H]1[C@H]2c3cccc(CCCC(=O)O)c3O[C@H]2C[C@H]1O` (mixture of isomers) [Beraprost, beraprost], the “effect on dermatitis scores compared to the ethanol-treated group” value in experiment [4] is given as “significant suppressive effect”. The “% Inhibition (percent itch suppression)” value in experiment [3] (setting [7]) was determined as 45.6%; in experiment [3] (setting [5]), 56.9%.
Take `C[C@@H]1C[C@H]2[C@@H]3CCC4=CC(=O)C=C[C@]4(C)[C@@]3(F)[C@@H](O)C[C@]2(C)[C@@]1(O)C(=O)CO` [Dexamethasone, dexamethasone]: the “% Occurrence of scratching behavior” value in experiment [1] was 50 ± 9 %. Further, the “number of scratchings over 24 hours, after drug application” value in experiment [2] came out at 286 ± 52. In addition, the “% Inhibition (percent itch suppression)” value in experiment [3] (setting [5]) came to 49.5%.
In the case of `CCCCC[C@H](O)/C=C/[C@H]1C(=O)C[C@H](O)[C@@H]1C/C=C\CCCC(=O)O` [PGD2, prostaglandin D2], the “% Inhibition (percent itch suppression)” value in experiment [3] (setting [7]) worked out at 56.3%.
Turning to `CCCC[C@H](C)C[C@H](O)/C=C/[C@H]1[C@H](O)CC(=O)[C@@H]1CCCC/C=C/C(=O)O` [Limaprost, limaprost], the “effect on dermatitis scores compared to the ethanol-treated group” value in experiment [4] is given as “significant suppressive effect”. Also, the “% Inhibition (percent itch suppression)” value worked out at 36.2% in experiment [3] (concentration 0.001% in 100% ethanol, 0.2 ml/mouse on dorsal skin) and 79.9% in experiment [3] (setting [7]).
For the molecule `CS(=O)(=O)NC(=O)CCC/C=C\C[C@H]1C(=O)C[C@@H](O)[C@@H]1/C=C/[C@@H](O)COc1ccccc1` [Sulprostone, sulprostone], the “% Inhibition (percent itch suppression)” value in experiment [3] (setting [7]) is on record as 24.0%.
Consider `CN(C)CCC(c1ccc(Cl)cc1)c1ccccn1` (centres unmarked) [Chlorpheniramine, chlorpheniramine maleate], for which the “% Inhibition (percent itch suppression)” value in experiment [3] (10 mg/kg, p.o.) is 3.56%. Further, the “suppression of spontaneous itch-evoked scratching behavior (in words)” value in experiment [3] (administered orally, 10 mg/kg) is given as “no suppression”.
